Experimental data: patent US11634451B2, “Method for the site-specific enzymatic labelling of nucleic acids in vitro by incorporation of unnatural nucleotides” (The Scripps Research Institute, priority 2013, dated 2023)

Assays:
Format in all cases: biochemical
[1] = target: T1, Klenow fragment of E. coli DNA polymerase I (Escherichia coli, UniProt P00582); assay: Presteady-state kinetics: incorporation of unnatural triphosphate opposite dNaM and extension; conditions: 2 μM dCTP, 10 s, dXTPs paired with dNaM; for % Incorporation: 40 nM unnatural triphosphate; for % Extension: 10 μM unnatural triphosphate
T1 construct: the Klenow fragment of E. coli DNA polymerase I
T1 sequence (P00582 324-928): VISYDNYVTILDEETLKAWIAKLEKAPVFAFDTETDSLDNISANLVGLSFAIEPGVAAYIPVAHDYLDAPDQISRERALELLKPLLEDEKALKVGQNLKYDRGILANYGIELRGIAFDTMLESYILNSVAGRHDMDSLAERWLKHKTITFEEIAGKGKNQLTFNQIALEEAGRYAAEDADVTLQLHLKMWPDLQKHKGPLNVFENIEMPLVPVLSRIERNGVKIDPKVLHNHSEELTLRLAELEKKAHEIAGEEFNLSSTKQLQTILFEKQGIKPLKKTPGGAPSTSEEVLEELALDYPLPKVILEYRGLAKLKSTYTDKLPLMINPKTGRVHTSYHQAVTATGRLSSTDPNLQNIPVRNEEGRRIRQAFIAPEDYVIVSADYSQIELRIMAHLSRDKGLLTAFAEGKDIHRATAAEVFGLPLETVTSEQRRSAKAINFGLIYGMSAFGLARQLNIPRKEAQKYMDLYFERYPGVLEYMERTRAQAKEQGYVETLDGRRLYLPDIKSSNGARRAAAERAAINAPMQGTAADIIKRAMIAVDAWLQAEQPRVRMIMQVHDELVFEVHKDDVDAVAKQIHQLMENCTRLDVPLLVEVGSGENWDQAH
Source text: Exemplary methods for analyzing unnatural base pair synthesis efficiency (insertion of an unnatural nucleobase opposite its partner in a template) and extension (continued primer elongation) are provided herein. One or both of the nucleobases in an unnatural base pair, in various embodiments, may be a linker-derivatized unnatural nucleobase. One method uses a presteady-state assay. The assay is based on determining, under a fixed set of conditions, the amount of a primer (e.g. 23-mer) that is extended by addition of the unnatural nucleotide opposite its complementary nucleotide in a template (e.g., 45-mer) by a polymerase (e.g., the Klenow fragment of E. coli DNA polymerase I). In this assay, the efficiency of unnatural base pair synthesis is characterized by measuring the percent incorporation (% inc) at a given concentration of the unnatural and next correct triphosphate, for example using a ratio such as [24-mer+25-mer]/[23-mer+24-mer+25-mer]. In this assay, the efficiency of extension is characterized by measuring the percent extension (% ext) at a given concentration of the next correct nucleotide and saturating concentrations of unnatural nucleotide, for example using a ratio [25-mer]/[24-mer+25-mer]. Results from an exemplary presteady-state assay are shown in Table 1, wherein the unnatural triphosphate is 5SICS, FPT1, TPT1, TPT2, TPT3, FTPT3, TPT3^PA, or 5SICS^PA. In some embodiments, the percent incorporation of an unnatural nucleobase is at least 60%, 65%, 70%, 71%, 72%, 73%, 74%, 75%, 76%, 77%, 78%, 79%, 80%, 81%, 82%, 83%, 84%, 85%, 86%, 87%, 88%, 89%, 90%, 91%, 92%, 93%, 94%, 95%, 96%, 97%, 98%, or 99%. In some embodiments, the percent extension of a next correct nucleotide following insertion of an unnatural nucleobase is at least 30%, 31%, 32%, 33%, 34%, 35%, 36%, 37%, 38%, 39%, 40%, 41%, 42%, 43%, 44%, 45%, 46%, 47%, 48%, 49%, 50%, 55%, 60%, 65%, 70%, 75%, 80%, 85%, 90% or greater. In some embodiments, synthesis efficiency is increased by derivatizing the unnatural nucleobase. For example, by the addition of a linker, a protected linker, and/or a linker conjugated to a cargo molecule. As another example, derivatization includes atom substitutions, additions, or deletions. In some embodiments, percent extension is increased by derivatizing the unnatural nucleobase. Derivatization of an unnatural nucleobase, in some instances, increases by at least 1-2 orders of magnitude the efficiency of insertion of the nucleotide complementary to the base pair in the template. This increase in efficiency may be due to an increase kcat and a decreased KM.
^aIncorporation assay conditions: 40 nM unnatural triphosphate, […], 10s. ^bExtension assay conditions: […], 2 μM dCTP, 10 s. dXTPs are paired with dNaM.

[2] = system: OneTaq polymerase; assay: PCR-based screen and amplification of DNA containing unnatural base pairs, OneTaq (Example 1); conditions: OneTaq
Experimental: (§1) The triphosphates of the 6 group were prepared from the previously reported nucleosides (Kubelka, T., Slavetinska, L., Eigner, V. and Hocek, M. Synthesis of 2,6-disubstituted pyridin-3-yl C-2′-deoxyribonucleosides through chemoselective transformations of bromo-chloropyridine C-nucleosides. Org. Biomol. Chem., 11, 4702-4718) according to Ludwig, J. and Eckstein, F. Rapid and efficient synthesis of nucleoside 5′-0-(1-thiotriphosphates), 5′-triphosphates and 2′,3′-cyclophosphorothioates using 2-chloro-4H-1,3,2-benzodioxaphosphorin-4-one. J. Org. Chem., 54, 631-635. The purity of all other triphosphates was confirmed by MALDI-TOF and UV-VIS. Taq and OneTaq DNA polymerases were purchased from New England Biolabs (Ipswich, Mass.). A mixture of dNTPs was purchased from Fermentas (Glen Burnie, Md.). SYBR Green I Nucleic Acid Gel Stain (10,000×) was purchased from Life Technologies (Carlsbad, Calif.). The synthesis of the DNA templates, D8 (Malyshev, D. A., Dhami, K., Quach, H. T., Lavergne, T., Ordoukhanian, P., Torkamani, A. and Romesberg, F. E. Efficient and sequence-independent replication of DNA containing a third base pair establishes a functional six-letter genetic alphabet. Proc. Natl. Acad. Sci. USA, 109, 12005-12010), used for screening rounds 1-5, and D6 (Malyshev, D. A., Seo, Y. J., Ordoukhanian, P. and Romesberg, F. E. PCR with an expanded genetic alphabet. J. Am. Chem. Soc., 131, 14620-14621), used for all other amplifications, was described previously. Sanger sequencing was carried out as described previously (Malyshev, D. A., Dhami, K., Quach, H. T., Lavergne, T., Ordoukhanian, P., Torkamani, A. and Romesberg, F. E. Efficient and sequence-independent replication of DNA containing a third base pair establishes a functional six-letter genetic alphabet. Proc. Natl. Acad. Sci. USA, 109, 12005-12010). Raw Sanger sequencing traces were used to determine the percent retention of the unnatural base pairs, which was converted to fidelity per doubling, as described (Malyshev, D. A., Dhami, K., Quach, H. T., Lavergne, T., Ordoukhanian, P., Torkamani, A. and Romesberg, F. E. Efficient and sequence-independent replication of DNA containing a third base pair establishes a functional six-letter genetic alphabet. Proc. Natl. Acad. Sci. USA, 109, 12005-12010; Malyshev, D. A., Seo, Y. J., Ordoukhanian, P. and Romesberg, F. E. PCR with an expanded genetic alphabet. J. Am. Chem. Soc., 131, 14620-14621).
(§2) All PCR amplifications were performed in a CFX Connect Real-Time PCR Detection System (Bio-Rad), in a total volume of 25 μL using the following conditions: 1× OneTaq reaction buffer, 0.5× Sybr Green I, MgSO4 adjusted to 4.0 mM, 0.2 mM of each dNTP, 50 μM of each unnatural triphosphate, […] of Primer1 and Primer2 (See Table 2), and 0.02 U/μl of the DNA polymerase. Other conditions specific for each round of screening are described in Table 3. Amplified products were purified using DNA Clean and Concentrator-5 spin columns from Zymo Research (Irvine, Calif.). After purification, the PCR products were sequenced on a 3730 DNA Analyzer (Applied Biosystems) to determine the retention of the unnatural base pair as described below. Fidelity was characterized from unnatural base pair (UBP) retention as determined by sequencing with Primer1 on a 3730 DNA Analyzer (Applied Biosystems).
(§3) Specific PCR assay conditions. PCR with the most promising UBPs was carried out with the conditions as described in Table 3. PCR products were further purified on […] gels, followed by single band excision and subsequent clean up using the Zymo Research Zymoclean Gel DNA Recovery Kit. After elution with 20 μl of water, the DNA concentration was measured using fluorescent dye binding (Quant-iT dsDNA HS Assay kit, Life Technologies), and purified amplicons were sequenced in triplicate with both Primer1 and Primer2 to determine UBP retention and thus amplification fidelity. […]

[3] = target: T2, Taq polymerase (Thermus aquaticus, UniProt P19821); assay: PCR-based screen and amplification of DNA containing unnatural base pairs, Taq (Example 1); conditions: Taq, 10 s Extension, 52 cycles, D6 template
T2 construct: purchased New England Biolabs (Ipswich, Mass.)
T2 sequence (P19821 whole entry): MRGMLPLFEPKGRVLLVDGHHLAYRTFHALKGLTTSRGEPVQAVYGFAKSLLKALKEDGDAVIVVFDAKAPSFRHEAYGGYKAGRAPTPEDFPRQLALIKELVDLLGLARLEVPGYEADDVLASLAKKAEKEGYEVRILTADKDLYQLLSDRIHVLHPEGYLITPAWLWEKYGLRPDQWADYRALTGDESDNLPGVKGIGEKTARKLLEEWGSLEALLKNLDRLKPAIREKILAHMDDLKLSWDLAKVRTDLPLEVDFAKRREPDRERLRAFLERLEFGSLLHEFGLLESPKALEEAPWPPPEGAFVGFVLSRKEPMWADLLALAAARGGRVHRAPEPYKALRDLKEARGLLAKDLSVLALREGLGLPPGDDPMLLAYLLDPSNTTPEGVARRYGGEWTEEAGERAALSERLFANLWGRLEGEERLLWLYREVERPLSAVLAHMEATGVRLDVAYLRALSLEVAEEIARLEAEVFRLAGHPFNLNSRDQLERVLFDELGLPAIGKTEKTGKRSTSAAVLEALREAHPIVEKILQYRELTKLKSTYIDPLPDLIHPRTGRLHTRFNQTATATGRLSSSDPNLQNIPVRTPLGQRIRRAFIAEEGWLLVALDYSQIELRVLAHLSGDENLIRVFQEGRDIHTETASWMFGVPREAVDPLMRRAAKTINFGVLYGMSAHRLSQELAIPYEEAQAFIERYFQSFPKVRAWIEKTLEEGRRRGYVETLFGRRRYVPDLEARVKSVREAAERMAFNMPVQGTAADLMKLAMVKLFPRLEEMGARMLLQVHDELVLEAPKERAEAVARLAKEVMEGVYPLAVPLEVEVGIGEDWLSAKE
Experimental: as §1, §2, §3

[4] = system: OneTaq; assay: PCR amplification assay to determine fidelity, OneTaq (Example 3)
Experimental: (§4) PCR assay. PCR amplifications were performed in a total volume of 25 μL and with conditions specific for each assay as described in Table 9. After amplification, a 5 μL aliquot was analyzed on a 6% non-denaturing PAGE gel ran along with 50 bp ladder (Life Technologies) to confirm amplicon size. The remaining solution was purified by spin-column (DNA Clean and Concentrator-5; Zymo Research, Irvine, Calif.), followed by 4% agarose gel, recovered with Zymoclean Gel DNA Recovery Kit (Zymo Research), quantified by fluorescent dye binding (Quant-iT dsDNA HS Assay kit, Life Technologies), and sequenced on a 3730 DNA Analyzer (Applied Biosystems). Fidelity was determined as the average % retention of the unnatural base pair per doubling as described below.
(§5) Determination of fidelity. The percent retention of an unnatural base pair (F) was measured using raw sequencing data and normalized to fidelities per doubling. Briefly, the presence of an unnatural nucleotide leads to a sharp termination of the sequencing profile, while mutation to a natural nucleotide results in “readthrough”. The extent of the “read-through” is thus inversely correlated with the retention of the unnatural base pair. To use the sequencing data as a quantitative measurement of PCR fidelity, we performed calibration experiments in the range of 50-100% retention of the unnatural base pair. Therefore, low retention (<50%) and high “read-through” make the quantification inaccurate.
(§6) Quantification of the high retention (>50%) was performed by adjusting the start and stop points for the Sequencing Analysis software (Applied Biosystems) and then determining the average signal intensity individually for each channel (A, C, G and T) for peaks within those defined points (35-45 nucleotides in length) before (section L) and S36 after (section R) the unnatural nucleotide. The R/L ratio was normalized using sequencing calibration plots to account for both noise in the sequencing chromatograms and the read-through in the control samples. […]

[5] = target: T2, Taq polymerase; assay: PCR amplification assay to determine fidelity, Taq (Example 3)
Experimental: as §4, §5, §6

[6] = 1 min Extension, 52 cycles, D6 template
[7] = OneTaq, standard PCR conditions

| SMILES | % Incorporation [1] [%] | % Extension [1] [%] | Amplification, ×10^12 [2, 6] | Fidelity per Doubling, % [2, 6] [%] | Retention, % [2, 6] [%] | Amplification, ×10^12 [3] | Fidelity per Doubling, % [3] [%] | Retention, % [3] [%] | other results |
| --- | --- | --- | --- | --- | --- | --- | --- | --- | --- |
| Cc1cc2c(=S)n([C@H]3C[C@H](O)[C@@H](COP(=O)(O)OP(=O)(O)OP(=O)(O)O)O3)ccc2o1 [FPT1] | 7.2 ± 0.2 | 32.0 ± 1.5 | – | – | – | – | – | – | – |
| O=P(O)(O)OP(=O)(O)OP(=O)(O)OC[C@H]1O[C@@H](n2cc(F)c3ccsc3c2=S)C[C@@H]1O [FTPT3] | 66.3 ± 0.5 | 33.8 ± 0.2 | – | – | – | – | – | – | – |
| Cc1cc2c(=S)n([C@H]3C[C@H](O)[C@@H](COP(=O)(O)OP(=O)(O)OP(=O)(O)O)O3)ccc2s1 [TPT1] | 28.7 ± 0.5 | 8.8 ± 0.2 | – | – | – | – | – | – | – |
| Cc1cc2ccn([C@H]3C[C@H](O)[C@@H](COP(=O)(O)OP(=O)(O)OP(=O)(O)O)O3)c(=S)c2s1 [TPT2] | 65.7 ± 0.5 | 34.5 ± 0.5 | – | – | – | – | – | – | – |
| C#Cc1cc(OC)c([C@H]2C[C@H](O)[C@@H](COP(=O)(O)OP(=O)(O)OP(=O)(O)O)O2)cc1F.O=P(O)(O)OP(=O)(O)OP(=O)(O)OC[C@H]1O[C@@H](n2ccc3ccsc3c2=S)C[C@@H]1O [TPT3-FEMO] | – | – | 10.4 ×10^12 | 99.55 ± 0.03 | 82.2 ± 1.0 | 5.0 ×10^12 | 99.44 ± 0.09 | 79 ± 3 | – |
| COc1cc(I)c(F)cc1[C@H]1C[C@H](O)[C@@H](COP(=O)(O)OP(=O)(O)OP(=O)(O)O)O1.O=P(O)(O)OP(=O)(O)OP(=O)(O)OC[C@H]1O[C@@H](n2ccc3ccsc3c2=S)C[C@@H]1O [TPT3-FIMO] | – | – | 8.7 ×10^12 | 99.61 ± 0.03 | 84.7 ± 1.1 | 8.5 ×10^12 | 99.60 ± 0.09 | 84 ± 3 | – |
| COc1cc2ccccc2cc1[C@H]1C[C@H](O)[C@@H](COP(=O)(O)OP(=O)(O)OP(=O)(O)O)O1.O=P(O)(O)OP(=O)(O)OP(=O)(O)OC[C@H]1O[C@@H](n2ccc3ccsc3c2=S)C[C@@H]1O [TPT3-NaM] | – | – | 8.3 ×10^12 | 99.79 ± 0.03 | 91.2 ± 1.3 | 5.8 ×10^12 | 99.66 ± 0.01 | 86.5 ± 0.5 | Fidelity, % ([2]; 16 cycles, 1 min extension): 99.92 ± 0.11%; Retention, % ([2]; 16 cycles, 1 min extension): 99.23 ± 1.12%; Amplification ([2]; 16 cycles, 1 min extension, -^a = no amplification was detected): 1004; Fidelity, % ([4]; OneTaq PCR (48 cycles), D6 template, dXTP with dNaMTP): > 99.98%; amplification efficiency relative to DNA containing just the natural base pairs [4, 7]: 4 fold lower; error rate [4, 7]: 10^−4 per nucleotide; Fidelity, % ([5]; Taq PCR (20 cycles), D6 template, dXTP with dNaMTP): 99.7%; amplification efficiency relative to a natural base pair ([5]; Taq polymerase): 2.5 fold lower; error rate ([5]; Taq polymerase): 10^−3 |
